Paper PMC3108859 (Toxicology and applied pharmacology, 2009)
Entries after “also recorded” stand apart in the source; their conditions may differ.

Tests used:
[1] = system: rat hepatocyte-Kupffer cell co-culture; settings: ref Tukov et al., 2006; cited from earlier work
[2] = system: primary human hepatocytes; test: Quantitative sub-lethal hepatotoxicity imaging assays; assay type: cell-based; settings: absence of cytokines, 24 or 48 hours
[3] = system: primary human hepatocytes; assay type: cell-based; settings: no cytokines, 24 hr, doses less than each drug's own 100*Cmax
[4] = system: primary human hepatocytes; assay type: cell-based; settings: 24 hours post-treatment

| Compound | drug-induced sub-lethal hepatocyte injuries (lipid content, ROS, MtMP, GSH depletion) [2] | cytokine synergy effects by factorial analysis of caspase 3/7 activity [4] | further results |
| --- | --- | --- | --- |
| CN(C)CCCN1c2ccccc2Sc2ccc(Cl)cc21 [chlorpromazine] | – | – | synergistic induction of hepatocellular death following LPS treatment [1]: synergistic induction of hepatocellular death following LPS treatment |
| CC[C@H]1OC(=O)[C@H](C)[C@@H](O[C@H]2C[C@@](C)(OC)[C@@H](O)[C@H](C)O2)[C@H](C)[C@@H](O[C@@H]2O[C@H](C)C[C@H](N(C)C)[C@H]2O)[C@](C)(OC)C[C@@H](C)C(=O)[C@H](C)[C@@H](O)[C@]1(C)O [clarithromycin] | numerous sub-lethal hepatotoxicities | – | – |
| CCc1nn(CCCN2CCN(c3cccc(Cl)c3)CC2)c(=O)n1CCOc1ccccc1 [nefazodone] | numerous sub-lethal hepatotoxicities | – | – |
| C=C[C@H]1C[N@@]2CC[C@H]1C[C@H]2[C@H](O)c1ccnc2ccc(OC)cc12 [quinine] | – | – | drug-only hepatotoxicity (greater than two-fold increase in LDH release) [3]: induced significant drug-only hepatotoxicity |
| CC[C@H]1OC(=O)[C@H](C)C(=O)[C@H](C)[C@@H](O[C@@H]2O[C@H](C)C[C@H](N(C)C)[C@H]2O)[C@](C)(OC)C[C@@H](C)C(=O)[C@H](C)[C@H]2N(CCCCn3cnc(-c4cccnc4)c3)C(=O)O[C@]12C [telithromycin] | only sub-lethal injury induced by both telithromycin and trovafloxacin that was statistically significant was MtMP depletion; also recorded: induced only one type of sub-lethal injury, mitochondrial membrane potential depletion | evident, in decreasing magnitude, for LPS and IL-1α but not other treatment variables | – |
| N[C@@H]1[C@H]2CN(c3nc4c(cc3F)c(=O)c(C(=O)O)cn4-c3ccc(F)cc3F)C[C@@H]12 [trovafloxacin] | only sub-lethal injury induced by both telithromycin and trovafloxacin that was statistically significant was MtMP depletion; also recorded: induced only one type of sub-lethal injury, mitochondrial membrane potential depletion | evident, in decreasing magnitude, for LPS and IL-1α but not other treatment variables | – |
